Data from the NIST ThermoML archive (doi:10.1021/je030117d).
Numbers after ± are expanded uncertainties.

How the values were obtained:
[1] = refractive index (Na D-line) (dimensionless); conditions: 298.15 K; 101.33 kPa; Liquid; Standard Abbe refractometry
[2] = Liquid; for mass density: 298.15 K, 101.33 kPa, Vibrating tube method; for Normal boiling temperature: Ebulliometric method (Recirculating still)
[3] = xn = mol fraction of the nth substance listed; conditions: 298.15 K, 101.33 kPa, Liquid, Vibrating tube method
[4] = excess molar enthalpy (molar enthalpy of mixing); xn = mol fraction of the nth substance listed; conditions: 298.15 K, 101.33 kPa, Liquid, Calvet calorimetry

## CCCCCCC [heptane]
[1]
  refractive index: 1.3853 ± 0.0007
[2]
  mass density: 679.3 ± 0.45 kg/m3
  Normal boiling temperature: 98.20 ± 0.49 °C

## CCCC(=O)OC [methyl butanoate]
[1]
  refractive index: 1.3852 ± 0.0008
[2]
  mass density: 892.52 ± 0.46 kg/m3
  Normal boiling temperature: 102.38 ± 0.2 °C

## CCCC(=O)OC [methyl butanoate] + CCCCCCC
[3]; x1 = 0.0337
  mass density: 684.36 ± 0.67 kg/m3
[3]; x1 = 0.0689
  mass density: 689.75 ± 0.68 kg/m3
[3]; x1 = 0.102
  mass density: 694.93 ± 0.7 kg/m3
[3]; x1 = 0.1531
  mass density: 703.25 ± 0.73 kg/m3
[3]; x1 = 0.2487
  mass density: 719.6 ± 0.76 kg/m3
[3]; x1 = 0.3261
  mass density: 733.58 ± 0.8 kg/m3
[3]; x1 = 0.3824
  mass density: 744.29 ± 0.84 kg/m3
[3]; x1 = 0.4586
  mass density: 759.5 ± 0.88 kg/m3
[3]; x1 = 0.5333
  mass density: 775.25 ± 0.93 kg/m3
[3]; x1 = 0.6085
  mass density: 791.88 ± 0.97 kg/m3
[3]; x1 = 0.6618
  mass density: 804.18 ± 1 kg/m3
[3]; x1 = 0.7161
  mass density: 817.1 ± 1.1 kg/m3
[3]; x1 = 0.7869
  mass density: 834.67 ± 1.1 kg/m3
[3]; x1 = 0.8394
  mass density: 848.24 ± 1.1 kg/m3
[3]; x1 = 0.8882
  mass density: 861.22 ± 1.2 kg/m3
[3]; x1 = 0.9255
  mass density: 871.41 ± 1.2 kg/m3

## COC(C)=O [methyl ethanoate]
[1]
  refractive index: 1.3589 ± 0.0008
[2]
  mass density: 927.14 ± 0.47 kg/m3
  Normal boiling temperature: 56.70 ± 0.2 °C

## COC(C)=O [methyl ethanoate] + CCCCCCC
[3]; x1 = 0.0676
  mass density: 686.77 ± 0.36 kg/m3
[3]; x1 = 0.1019
  mass density: 690.81 ± 0.37 kg/m3
[3]; x1 = 0.1594
  mass density: 698.12 ± 0.39 kg/m3
[3]; x1 = 0.2497
  mass density: 710.82 ± 0.42 kg/m3
[3]; x1 = 0.3137
  mass density: 721.1 ± 0.46 kg/m3
[3]; x1 = 0.4011
  mass density: 736.76 ± 0.49 kg/m3
[3]; x1 = 0.4829
  mass density: 753.42 ± 0.54 kg/m3
[3]; x1 = 0.5498
  mass density: 768.76 ± 0.59 kg/m3
[3]; x1 = 0.6215
  mass density: 786.97 ± 0.64 kg/m3
[3]; x1 = 0.6765
  mass density: 802.41 ± 0.69 kg/m3
[3]; x1 = 0.7204
  mass density: 815.61 ± 0.74 kg/m3
[3]; x1 = 0.7841
  mass density: 836.35 ± 0.79 kg/m3
[3]; x1 = 0.8342
  mass density: 854.72 ± 0.86 kg/m3
[3]; x1 = 0.8837
  mass density: 873.99 ± 0.92 kg/m3
[3]; x1 = 0.9248
  mass density: 891.52 ± 0.99 kg/m3
[3]; x1 = 0.9632
  mass density: 908.98 ± 1 kg/m3

## COC=O [methyl methanoate]
[1]
  refractive index: 1.3412 ± 0.0008
[2]
  mass density: 966.18 ± 0.49 kg/m3
  Normal boiling temperature: 31.64 ± 0.2 °C

## COC=O [methyl methanoate] + CCCCCCC
[3]; x1 = 0.042
  mass density: 682.76 ± 0.3 kg/m3
[3]; x1 = 0.1206
  mass density: 689.96 ± 0.33 kg/m3
[3]; x1 = 0.2235
  mass density: 702.15 ± 0.38 kg/m3
[3]; x1 = 0.3614
  mass density: 723.34 ± 0.44 kg/m3
[3]; x1 = 0.4593
  mass density: 741.73 ± 0.51 kg/m3
[3]; x1 = 0.5364
  mass density: 759.27 ± 0.59 kg/m3
[3]; x1 = 0.6079
  mass density: 778.2 ± 0.66 kg/m3
[3]; x1 = 0.6651
  mass density: 795.64 ± 0.78 kg/m3
[3]; x1 = 0.7799
  mass density: 837.8 ± 0.87 kg/m3
[3]; x1 = 0.8321
  mass density: 861.36 ± 1 kg/m3
[3]; x1 = 0.8729
  mass density: 882.18 ± 1.2 kg/m3
[3]; x1 = 0.911
  mass density: 904.19 ± 1.3 kg/m3
[3]; x1 = 0.946
  mass density: 926.26 ± 1.4 kg/m3
[3]; x1 = 0.9736
  mass density: 945.92 ± 1.6 kg/m3
[3]; x1 = 0.9935
  mass density: 961.3 ± 1.6 kg/m3
[4]; x1 = 0.0673
  excess molar enthalpy: 0.123 ± 0.00382 kcal/mol
[4]; x1 = 0.1535
  excess molar enthalpy: 0.268 ± 0.00454 kcal/mol
[4]; x1 = 0.2499
  excess molar enthalpy: 0.403 ± 0.0055 kcal/mol
[4]; x1 = 0.3332
  excess molar enthalpy: 0.484 ± 0.00621 kcal/mol
[4]; x1 = 0.4008
  excess molar enthalpy: 0.52 ± 0.00645 kcal/mol
[4]; x1 = 0.4555
  excess molar enthalpy: 0.538 ± 0.00669 kcal/mol
[4]; x1 = 0.5004
  excess molar enthalpy: 0.546 ± 0.00669 kcal/mol
[4]; x1 = 0.5354
  excess molar enthalpy: 0.546 ± 0.00669 kcal/mol
[4]; x1 = 0.5709
  excess molar enthalpy: 0.545 ± 0.00669 kcal/mol
[4]; x1 = 0.6389
  excess molar enthalpy: 0.521 ± 0.00645 kcal/mol
[4]; x1 = 0.6745
  excess molar enthalpy: 0.506 ± 0.00645 kcal/mol
[4]; x1 = 0.7144
  excess molar enthalpy: 0.479 ± 0.00621 kcal/mol
[4]; x1 = 0.7527
  excess molar enthalpy: 0.452 ± 0.00598 kcal/mol
[4]; x1 = 0.794
  excess molar enthalpy: 0.412 ± 0.00574 kcal/mol
[4]; x1 = 0.8313
  excess molar enthalpy: 0.363 ± 0.00526 kcal/mol
[4]; x1 = 0.8721
  excess molar enthalpy: 0.303 ± 0.00502 kcal/mol
[4]; x1 = 0.9068
  excess molar enthalpy: 0.234 ± 0.00502 kcal/mol
[4]; x1 = 0.9426
  excess molar enthalpy: 0.157 ± 0.00502 kcal/mol
[4]; x1 = 0.973
  excess molar enthalpy: 0.0807 ± 0.00502 kcal/mol
